Values of other authors as cited in patent US10213524B2, “Coating comprising strontium for body implants” (ELOS MEDTECH PINOL A/S, priority 2012, dated 2019).

Test system: mice
Details: intravenous injection

Structure (SMILES): CC(=O)[O-].CC(=O)[O-].[Sr+2] [strontium acetate]
- toxic concentration (can cause mortality): ~40 mg/kg Sr
